No end group written: not given here. *: point of attachment. Biotin = O=C1N[C@H]2[C@H](CS[C@H]2CCCCC(=O)*)N1
Columns and labels:
[1] = test system: B cell surface CLIP; assay: B cell surface CLIP after 2-Deoxyglucose and dichloroacetate (FIG. 4); format: cell-based
[2] = background statement; cited from earlier work
[3] = test system: mouse splenic B cells; assay: TLR activation of mouse splenocytes in vitro, ectopic CLIP on B cells (15G4-FITC versus B220); format: cell-based; conditions: for exogenous CLIP expression on activated mouse B cells: treatment in vitro with toll ligand
Excerpt: Mouse splenocytes or T-depleted splenocytes were red cell depleted using Geys Solution, and cells were counted. For T-depleted B cell preparations, B cells were separated by discontinuous Percoll (Pharmacia LKB Biotechnology, Piscataway, N.J.) gradients (13). Those cells layering at the 1.079/1.085 g/ml interface (1.079<ρ≦1.085) are designated throughout as resting B cells. Cells layering at the BSS/1.066 g/ml interface (ρ≦1.066) are designated as activated. Viable cells from this latter interface were isolated using Lympholyte-M (Cedarlane Laboratories, Ltd., Hornby, Ontario, Canada). Cells from each layer were harvested, washed, and resuspended at 10^7 cells/ml in PBS containing 5% fetal calf serum.
Total splenocytes, from either B6.129, Ii-deficient, or H2M-deficient mice were cultured with LPS for 24, 48, 72, or 96 hours as indicated. Cells were harvested and stained by two-color fluorescence using 15G4-FITC anti-mouse CLIP/I-A^6 versus anti-mouse B220 PE.
Freshly isolated splenocytes, single cell suspensions of lymph node cells, resting (or activated) B cells, or primed B cells were isolated from B6.129, Ii-deficient, or H2M-deficient mice and cultured in 24 well plates in complete RPMI medium, with or without the appropriate Toll ligand, at 10^6 cells/ml. Cells were cultured for 24, 48, 72, 96, or up to 144 hours. Cells were harvested and stained by flow cytometric analysis using either a Beckman Coulter Excel or a Beckman Coulter FC500 flow cytometer. Cells were stained by two-color fluorescence using 15G4-FITC anti-mouse CLIP/I-A^b versus anti-mouse B220 PE. For co-culture experiments (5×10^5) were combined with T cells (5×10^4) in 24 well plates in complete medium, with or without the appropriate antigen. Experiments with 3A9, 2A11 or A6.A2 employed 3 mg/ml tryptic digest of HEL as a source of pre-processed antigen, i.e., peptide. Cultures were incubated overnight at 37° C. in a humidified 5% CO2, 95% air incubator.
(§1) Multi-parameter flow cytometric analysis for the fluorescent detection of ectopic CLIP, mouse B220, human CD19 or CD20, human CLIP, human HLA-DR, and human CLIP or apoptosis were performed using a Beckman Coulter Excel or a Beckman Coulter FC500 flow cytometer (Beckman Coulter, Hialeah, Fla.). Mouse splenic cells were cultured in complete RPMI for the times indicated. Resting, primed, or activated B cells were cultured in the presence of T cells (vide supra). At the end of 16 h of culture, the cells were harvested and washed. Ethidium bromide (detected by red fluorescence) was added immediately before analysis of each tube. The cells were analyzed by first gating using forward vs. side scatter then using increased fluorescence as a measure of detection of the indicated cell surface antigens.

[4] = test system: human B cells from peripheral blood mononuclear cells (PBMC); assay: Human PBMC culture with toll ligands with or without peptides, CLIP on B cells; format: cell-based; conditions: for level of CLIP per B cell / percentage of CLIP+ B cells: PBMC of two donors cultured with R848 for 48 hours
Protocol: PBMC were prepared from a total of seven adult normal donors, five for examining the effects of TLR binding on the percentage of ectopic CLIP^+ B cells and changes in mean fluorescence intensity of the CLIP staining resulting from TLR stimulation with CpG-ODN, LPS, Pam-3-Cys, and Poly I:C. For these experiments, the cells were cultured at approximately 1×10^6 per ml with each TLR binding ligand added at 5 μg per ml. The other two donors were tissue typed for HLA phenotypes, were cultured with the TLR7/8 agonist CL097 for 48 hours with and without the computationally predicted competitive peptide or the scrambled analogue for 48 hours. For both experiments at the end of the appropriate culture period, cells were harvested and stained for cell surface CLIP using anti-human CLIP-FITC versus MHC class II HLA-DR-PE Cy5, or anti-human CLIP-FITC versus anti-human CD19-PE. Cells were analyzed using either a BD FacsCalibur, for the five samples, or a Coulter FC500 for the two tissue typed samples.
as §1
Because CLIP affinity for MHC class II molecules is allele dependent, the MHCPred (http://www.jenner.ac.uk/MHCPred/) and NetMHC (http://www.cbs.dtu.dk/services/NetMHC/) databases was used to determine binding affinities between CLIP for molecules encoded by either mouse or human MHC alleles. […] For human studies, PBMC were collected from donors, most of whose MHC tissue types (alleles for HLA-DR, DP, DQ, HLA-A, and HLA-B) were identified. The cells were cultured in the presence or absence of the TLR7/8-binding compound R848 (CLO97, Invivogen) for 48 hours. The cells were cultured in the presence or absence of VGV-hB peptide versus a control peptide of equal length (referred to henceforth as VGV-pB, whose binding depends upon the MHC allele/polymorphism of the individual) (FIGS. 13d and 13e). […] Considering polymorphic differences in MHC alleles between the two individuals, the ability of a given peptide to replace CLIP may vary as a function of the polymorphism between the two people. Data are representative of five different experiments performed over several months.

[5] = test system: B6.129 (H-2b) mice; assay: CpG-ODN injected B6.129 mice with or without peptide (TLR-induced chronic hyperimmune activation); format: in vivo, mouse
Protocol: C57Bl6 and B6.129 mice were injected with CpG-oligo-deoxynucleotide (CpG-ODN (25 μg per mouse)). After 24, 72, or 96 hours, animals were humanely killed; spleens and lymph nodes were removed. The spleens and lymph nodes were passed through nylon mesh to recover single cell suspensions, and the cells were counted. Cells were stained as indicated and analyzed flow cytometrically using a Beckman Coulter Excel or Coulter FC500 flow cytometer.
as §1
Cell death was measured either by flow cytometric detection of forward versus side scatter or by DNA fragmentation. DNA fragmentation was quantified by terminal deoxynucleotidyl transferase (TdT; Promega, Madison, Wis.)-mediated fluorescein-12-deoxyuridine triphosphate (FITC-dUTP; Boehinger Mannheim Corporation, Indianapolis, Ind.) addition to the terminal 3′-OH ends of fragmented DNA (TUNEL assay) as previously described (18). Resting B cells (1×10^6) were combined with 1×10^5 T hybridoma cells, with or without antigen, and cultured for 16-17 h. The cultures were harvested and washed twice in PBS-2% FBS at 4° C. Subsequently, cells were incubated for 30 min at 4° C. in PBS-2% FBS […] Cells were washed in PBS and fixed in 1.5% paraformaldehyde in PBS (pH 7.4) for 1 h at 4° C. Cells were thoroughly washed in PBS and were resuspended in 50 μl of a reaction mixture containing the following: 5 units TdT, 0.1-0.2 nM FITC-dUTP and 1 nM each dATP, dCTP, and dGTP in 100 mM cacodylate buffer (pH 6.8) with 1 mM CoCl2 and 0.1 mg/ml BSA. Reactions were incubated for 1 h at 37° C. and stopped by washing with 0.25 M EDTA in Tris buffer (pH 7.4). Cells were then analyzed for two color fluorescence on the FC500.
Using mouse models for quantitative analysis of TLR-induced CHA, B6.129 (H-2^b) mice were injected with CpG-ODN alone or CpG-ODN in combination with VGV-hB. […] Because the binding constant of a peptide is also function of concentration, B6.129 mice were injected with peptide; either VGV-hB or VGV-sB, ranging in dose from 0.25, 2.5, 25, and 50 micrograms of peptide per mouse, (FIGS. 14c and 14d).

[6] = test system: B6.129 (H-2b) mice; assay: as above; format: in vivo, mouse; conditions: CpG-ODN alone or with peptide, 48 hours
[7] = test system: human B cell lines, Raji and Daudi; assay: Synthetic peptide binding and competition with CLIP on B cell lines (anti-human CLIP Fitc versus Streptavidin); format: cell-based; conditions: for cell surface bound CLIP (Fitc-Anti-CLIP): biotinylated competing peptide, 50 microMolar
Excerpt: Based on a computational model comparing the peptide content of TNP mixture and identifying those peptides that would have the likeliest ability to compete for the peptide/antigen binding site for MHC class II (human HLA-DR, DP, and DQ), several peptide candidates were synthesized and examined for activity. The purpose of the study was to determine if synthetic peptides can compete for binding with CLIP peptides as measured with either Fitc anti-human CLIP antibody or, comparatively in the case of biotinylated peptides, with Streptavidin.
Cell Culture Conditions: The Raji and Daudi cell lines were purchased from American Type Culture Collection, were thawed, and grown in RPMI 1640 medium supplemented with standard supplements, including 10% fetal calf serum, gentamycin, penicillin, streptomycin, sodium pyruvate, HEPES buffer, 1-glutamine, and 2-ME.
Protocol: Cells were plated into a 12 well plate with 3 mls total volume containing approximately 1.5×10^6/well for Daudi cells and 3.0×10^6/well for Raji cells. Treatment groups included no treatment as control; MKN 3 and MKN 5 at 50 microMolar final concentration based on the reported molarity of the synthesized compounds.
The cells were incubated at 37° C. in an atmosphere containing 5% CO2 and approximately 92% humidity. The cells were incubated for 4 and 24 hours. At each time point, the cells from that experimental time were harvested and stained for flow cytometric analysis of cell surface expression of CLIP (MHC Class II invariant peptide, human) by using the commercially available (Becton/Dickinson/PHarmingen) anti-human CLIP Fitc. Catalogue #555981 versus Streptavidin.
Harvested cells were stained using standard staining procedure that called for a 1:100 dilution of Fitc-anti-human CLIP or isotype control versus 1:200 dilution of the commercially prepared Streptavidin. Following staining on ice for 25 minutes, cells were washed with PBS/FCS and resuspended in 100 microliters and added to staining tubes containing 400 microliters of PBS. Samples were acquired and analyzed on a Coulter Excel Flow Cytometer.
In the Histogram analyses of FIGS. 5-7 the Y axis represents cell number of the 5000 live cells versus the X axis which is a reflection of relative Fitc fluorescence versus Streptavidin-PE (eBioscience, Cat. #12-4317) that will bind with high affinity to cell-bound biotinylated peptides. The distance between the histogram from the isotype control staining versus the histogram reflecting the specific stain and is a measure of level of cell surface CLIP or the biotinylated peptide when stained with Streptavidin on a population of live Raji or Daudi cells as indicated.

[8] = peptide in combination with TLR 9 stimulation (CpG-ODN)

Molecule: O=CC[C@@H](O)[C@H](O)[C@H](O)CO [2-Deoxyglucose]
- B cell surface CLIP [1]: affects B cell surface CLIP

Molecule: C=CC[C@@H]1/C=C(\C)C[C@H](C)C[C@H](OC)[C@H]2O[C@@](O)(C(=O)C(=O)N3CCCC[C@H]3C(=O)O[C@H](/C(C)=C/[C@@H]3CC[C@@H](O)[C@H](OC)C3)[C@H](C)[C@@H](O)CC1=O)[C@H](C)C[C@@H]2OC [FK506, tacrolimus]
- immunosuppressive activity relative to cyclosporin [2]: 10-100 times

Molecule: CCOCc1nc2c(N)nc3ccccc3c2n1CC(C)(C)O [R848, imidazoquinoline resiquimod]
- exogenous CLIP expression on activated mouse B cells [3]: resulted in exogenous CLIP expression

Molecule: (S)-(2,3-bis(palmitoyloxy)-(2RS)-propyl)-N-palmitoyl-(R)-Cys-(S)-Ser(S)-Lys4-OH, trihydrochloride [Pam3Cys]
- exogenous CLIP expression on activated mouse B cells [3]: resulted in exogenous CLIP expression

Molecule: ANSGIIGDITEEVGGQY [VGV-pB]
- level of CLIP per B cell [4]: reduced the frequency of CLIP^+ B cells and the level of CLIP per cell in one individual but not the other
- percentage of CLIP+ B cells [4]: reduced the frequency of CLIP^+ B cells and the level of CLIP per cell in one individual but not the other

Molecule: FRIMAVLAS [VGV-hB]
- level of CLIP per B cell [4]: reduced the percentage of CLIP^+ B cells and the level of CLIP per B cell to pre-treatment levels
- percentage of CLIP+ B cells [4]: reduced the percentage of CLIP^+ B cells and the level of CLIP per B cell to pre-treatment levels
- reversal of CpG-ODN activation incl. percent of CLIP+ B cells from total spleen (peptide titration) ([5]; 0.25, 2.5, 25, and 50 micrograms of peptide per mouse): reversed the effecs of CpG-ODN activation
- CD4+ FoxP3+ Tregs in the lymph nodes ([5]; CpG-ODN injection in vivo, without or with peptide): reversible
- effect of CpG-ODN on total cell numbers, absolute numbers of B cells, and CLIP+ B cell distribution between spleen and lymph node ([5]; CpG-ODN with peptide, 24, 72, 96 hours): reduced
- CD8+ T cells ([5]; CpG-ODN with peptide, interpretation in discussion): promotes expansion
- B cell death [5, 8]: increased B cell death
- number of live CD4+ T cells [5, 8]: moderate increase
- splenic B lymphocytes and splenic CLIP+ B cells [6]: reversed the effects of CPG alone

Molecule: FRIMAVLASSGGGANSGFRIMAVLASGGQY [MKN.3]
- cell surface bound CLIP (Fitc-Anti-CLIP) ([7]; 4 hours): small decreases
- cell surface bound CLIP (Fitc-Anti-CLIP) ([7]; 24 hours): significant decreases

Molecule: SGGGKALVQNDTLLQVKG (not fully specified (N-terminus); also: biotinylated, position not given here) [MKN.5]
- cell surface bound CLIP (Fitc-Anti-CLIP) ([7]; 4 hours): small decreases
- cell surface bound CLIP (Fitc-Anti-CLIP) ([7]; 24 hours): significant decreases

Molecule: SGGGSKMRMATPLLMQALY (Biotin-SGGGSKMRMATPLLMQALY) [MKN.1]
- cell surface CLIP and CD74 levels ([7]; Raji or Daudi cells): alters cell surface CLIP and CD74 levels

Molecule: lipopolysaccharide [LPS]
- ectopic CLIP on human B cells ([4]; PBMC from five healthy donors, toll ligand 5 ug per ml, 24 hours): Statistically significant increases
- exogenous CLIP associated with MHC class II on splenic B cells ([3]; in vitro stimulation of resting mouse splenocytes, 0 to 72 hours): time-dependent increase
- exogenous CLIP expression on activated mouse B cells [3]: resulted in exogenous CLIP expression

Molecule: polyinosinic:polycytidylic acid [Poly I:C]
- exogenous CLIP expression on activated mouse B cells [3]: resulted in exogenous CLIP expression

— patent publication US20130259829A1, “CLIP INHIBITORS AND METHODS OF MODULATING IMMUNE FUNCTION” (The Regents of the University of Colorado, A Body Corporate, priority 2008, published 2013)
